Source: ChEMBL document CHEMBL2073807, “Effects of glibenclamide on glycylsarcosine transport by the rat peptide transporters PEPT1 and PEPT2” (Br J Pharmacol, 1999)

Key:
[1] = target: T1, Solute carrier family 15 member 2 (Rattus norvegicus, UniProt Q63424); assay: TP_TRANSPORTER: inhibition of Gly-Sar uptake in PEPT2-expressing LLC-PK1 cells; assay type: functional, cell-based
T1 sequence (Q63424 whole entry): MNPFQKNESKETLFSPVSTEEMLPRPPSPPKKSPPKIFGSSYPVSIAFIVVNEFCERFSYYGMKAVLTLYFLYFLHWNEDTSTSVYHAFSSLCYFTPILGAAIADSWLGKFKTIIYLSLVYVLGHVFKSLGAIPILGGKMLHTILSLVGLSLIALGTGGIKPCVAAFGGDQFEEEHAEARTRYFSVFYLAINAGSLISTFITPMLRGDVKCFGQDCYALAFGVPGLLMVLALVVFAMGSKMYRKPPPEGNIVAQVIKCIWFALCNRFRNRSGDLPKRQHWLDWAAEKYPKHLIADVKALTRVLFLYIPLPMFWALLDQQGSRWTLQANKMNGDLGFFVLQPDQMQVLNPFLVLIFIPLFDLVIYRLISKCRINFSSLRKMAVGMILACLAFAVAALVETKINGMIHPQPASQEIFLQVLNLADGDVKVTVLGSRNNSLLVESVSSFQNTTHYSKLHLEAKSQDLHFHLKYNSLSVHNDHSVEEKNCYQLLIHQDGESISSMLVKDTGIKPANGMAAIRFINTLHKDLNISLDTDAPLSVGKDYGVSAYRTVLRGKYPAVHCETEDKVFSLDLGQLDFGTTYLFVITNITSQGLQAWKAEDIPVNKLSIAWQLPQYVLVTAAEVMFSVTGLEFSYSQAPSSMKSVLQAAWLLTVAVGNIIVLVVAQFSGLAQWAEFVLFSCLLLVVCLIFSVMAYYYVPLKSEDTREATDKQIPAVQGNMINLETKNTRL

[2] = target: T2, Solute carrier family 15 member 1 (Rattus norvegicus, UniProt P51574); assay: TP_TRANSPORTER: inhibition of Gly-Sar uptake in PEPT1-expressing LLC-PK1 cells; assay type: functional, cell-based
T2 sequence (P51574 whole entry): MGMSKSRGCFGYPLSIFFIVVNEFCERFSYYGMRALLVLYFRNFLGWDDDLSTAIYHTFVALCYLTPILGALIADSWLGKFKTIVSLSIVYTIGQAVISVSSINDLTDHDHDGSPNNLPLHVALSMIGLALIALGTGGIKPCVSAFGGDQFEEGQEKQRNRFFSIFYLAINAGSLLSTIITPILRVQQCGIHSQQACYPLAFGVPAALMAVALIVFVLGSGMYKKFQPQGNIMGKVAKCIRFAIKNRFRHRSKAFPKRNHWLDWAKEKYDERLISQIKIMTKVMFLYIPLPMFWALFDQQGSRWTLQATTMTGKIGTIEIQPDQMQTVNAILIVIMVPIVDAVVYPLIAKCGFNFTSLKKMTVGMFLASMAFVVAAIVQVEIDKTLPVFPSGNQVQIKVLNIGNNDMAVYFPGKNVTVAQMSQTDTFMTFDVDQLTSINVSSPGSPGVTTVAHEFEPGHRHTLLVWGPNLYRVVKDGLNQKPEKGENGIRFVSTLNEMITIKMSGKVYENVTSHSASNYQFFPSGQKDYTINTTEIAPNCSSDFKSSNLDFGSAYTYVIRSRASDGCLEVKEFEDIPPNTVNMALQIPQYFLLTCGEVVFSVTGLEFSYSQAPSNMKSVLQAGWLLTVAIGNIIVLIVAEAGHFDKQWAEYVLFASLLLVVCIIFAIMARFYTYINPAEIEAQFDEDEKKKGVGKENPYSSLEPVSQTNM

**Q.** Which results are given for COc1ccc(Cl)cc1C(=O)NCCc1ccc(S(=O)(=O)NC(=O)NC2CCCCC2)cc1 [GLYBURIDE]?
**A.** Ki [1]: 7.8 µM; Ki [2]: 25 µM
